# According to paper PMC5613053 (Investigational New Drugs, 2017):
# Where two headings read alike, the source gives them in different places.
# Key:
# MV4–11 tumors = test: MV4–11 subcutaneous xenograft antitumor activity; type: in vivo, mice; settings: 28 days; for Mice with complete tumor regression: n = 6
# Procedure: (§1) Once tumor growth had been confirmed, mice xenografted with MV4–11 cells were monitored for 28 days; mice xenografted with Ba/F3 cells expressing FLT3 mutations were monitored for 7 days. Tumor diameter was measured using a caliper, and tumor volume was determined by calculating the volume of an ellipsoid using the formula: length × width^2 × 0.5. Body weight was measured using a standard balance. Data are expressed as mean ± SEM from n = 6 mice/group (MV4–11) and n = 5 mice/group (Ba/F3).
# (§2) After tumor establishment, mice were divided into groups such that the mean tumor volume was approximately equal in each group.
# MV4–11 cells = test: CellTiter-Glo cell viability; type: cell-based; settings: Homo sapiens, MV4-11, 120 h; 5 days of treatment; read-out: Growth inhibition mean IC50
# Procedure: (§3) A detailed protocol is provided in the online resource.
# (§4) The assay was performed in either triplicate or quadruplicate. […] The geometric mean was calculated from three individual experiments.
# FLT3 = FLT3 (Homo sapiens, UniProt P36888); test: biochemical; settings: read-out: Inhibition of kinase activity
# Sequence of FLT3 (P36888 27-993): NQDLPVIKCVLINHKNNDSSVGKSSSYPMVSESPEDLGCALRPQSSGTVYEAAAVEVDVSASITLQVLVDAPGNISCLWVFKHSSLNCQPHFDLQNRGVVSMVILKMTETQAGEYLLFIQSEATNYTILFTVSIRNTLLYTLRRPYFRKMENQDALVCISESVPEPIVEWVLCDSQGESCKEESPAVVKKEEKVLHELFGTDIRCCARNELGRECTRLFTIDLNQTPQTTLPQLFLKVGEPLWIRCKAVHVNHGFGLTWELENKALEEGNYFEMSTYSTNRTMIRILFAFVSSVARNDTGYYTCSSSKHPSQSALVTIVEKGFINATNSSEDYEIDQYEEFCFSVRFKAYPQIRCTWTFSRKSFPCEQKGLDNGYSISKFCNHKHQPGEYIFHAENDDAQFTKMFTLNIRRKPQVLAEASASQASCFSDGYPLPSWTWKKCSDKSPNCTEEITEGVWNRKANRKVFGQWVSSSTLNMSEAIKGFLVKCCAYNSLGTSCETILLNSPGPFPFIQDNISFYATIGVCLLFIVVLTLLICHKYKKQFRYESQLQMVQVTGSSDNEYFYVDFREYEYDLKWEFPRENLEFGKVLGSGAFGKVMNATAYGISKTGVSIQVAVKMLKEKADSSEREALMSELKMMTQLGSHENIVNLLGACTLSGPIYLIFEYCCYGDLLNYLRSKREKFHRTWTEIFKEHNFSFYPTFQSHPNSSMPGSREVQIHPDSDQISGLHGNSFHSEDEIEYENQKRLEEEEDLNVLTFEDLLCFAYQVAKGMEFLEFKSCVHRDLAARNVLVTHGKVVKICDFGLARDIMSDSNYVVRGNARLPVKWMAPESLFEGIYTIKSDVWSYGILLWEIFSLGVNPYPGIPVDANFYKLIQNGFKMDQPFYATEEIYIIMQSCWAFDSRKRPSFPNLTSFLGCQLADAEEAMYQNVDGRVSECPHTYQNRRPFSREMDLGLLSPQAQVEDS
# Procedure: These assays were conducted according to the manufacturer’s instructions. […] TK-ELISA and MSA assays were used to conduct IC50 studies for FLT3, LTK, AXL, and c-KIT; the HTRF® KinEASE™-TK assay (Sceti Medical Labo, Tokyo, Japan) was performed according to the manufacturer’s protocol to assess the IC50 value of echinoderm microtubule-associated protein-like 4-ALK (EML4-ALK; three individual experiments for each kinase).
# p-ERK = test: Immunoblot of downstream FLT3 targets in MV4-11 cells; type: cell-based; settings: Homo sapiens
# Procedure: (§5) FLT3 immunoprecipitation and immunoblotting for all targets were performed following standard protocols. Detailed methods are provided in the online resource.
# (§6) Cells were treated for 2 h prior to cell lysate preparation in RIPA buffer supplemented with phosphatase / protease inhibitors. Following sample preparation, protein lysates were electrophoresed on 7.5% gels and transferred to PVDF membranes.
# (§7) All membranes were blocked using either Blocking One or Blocking One-P (Nacalai Tesque Inc., Kyoto, Japan) for 1 h prior to an overnight incubation with primary antibody. Membranes were incubated overnight at 4°C with one of the following antibodies: anti-FLT3 antibody (Abcam), anti-phosphorylated pan-tyrosine, anti-ERK, anti-phospho-ERK, anti-STAT5, anti-phospho-STAT5, anti-AKT, anti-phospho-AKT, anti-AXL, anti-phospho-AXL, or anti-actin. The membranes were then washed with 1× TBS Tween-20 (TBS-T) Buffer (Thermo Fisher Scientific Inc., Rockford, IL) and incubated with an appropriate HRP-linked secondary antibody (Cell Signaling Technology) for 1 h at room temperature. After a final wash, ECL Western Blotting Detection Reagent ECL-prime (GE Healthcare, Fairfield, CT) were applied to the membranes and signals were detected with a CCD camera (ImageQuant LAS4000; GE Healthcare). Signal intensity was then quantified using ImageQuant™ TL software (GE Healthcare). The study was performed once in triplicate, and the mean percentage of phosphorylated protein to total protein relative to that in vehicle-treated cells was calculated.
# p-STAT5 = test: as above; type: cell-based; settings: Homo sapiens
# Procedure: as §5, §6, §7
# p-AKT = test: as above; type: cell-based; settings: Homo sapiens
# Procedure: as §5, §6, §7
# [1] = Body weight in MV4–11 xenograft study; type: in vivo, mice; settings: 1–10 mg/kg/day oral, 28 days; any tested dose
# Procedure: as §1, §2
# c-KIT = molecular target: T1, c-KIT (Homo sapiens, UniProt P10721); test: Kinase inhibitory assay (TK-ELISA / off-chip MSA); type: biochemical
# T1 construct: purchased Carna Biosciences, Inc
# T1 sequence (P10721 26-976): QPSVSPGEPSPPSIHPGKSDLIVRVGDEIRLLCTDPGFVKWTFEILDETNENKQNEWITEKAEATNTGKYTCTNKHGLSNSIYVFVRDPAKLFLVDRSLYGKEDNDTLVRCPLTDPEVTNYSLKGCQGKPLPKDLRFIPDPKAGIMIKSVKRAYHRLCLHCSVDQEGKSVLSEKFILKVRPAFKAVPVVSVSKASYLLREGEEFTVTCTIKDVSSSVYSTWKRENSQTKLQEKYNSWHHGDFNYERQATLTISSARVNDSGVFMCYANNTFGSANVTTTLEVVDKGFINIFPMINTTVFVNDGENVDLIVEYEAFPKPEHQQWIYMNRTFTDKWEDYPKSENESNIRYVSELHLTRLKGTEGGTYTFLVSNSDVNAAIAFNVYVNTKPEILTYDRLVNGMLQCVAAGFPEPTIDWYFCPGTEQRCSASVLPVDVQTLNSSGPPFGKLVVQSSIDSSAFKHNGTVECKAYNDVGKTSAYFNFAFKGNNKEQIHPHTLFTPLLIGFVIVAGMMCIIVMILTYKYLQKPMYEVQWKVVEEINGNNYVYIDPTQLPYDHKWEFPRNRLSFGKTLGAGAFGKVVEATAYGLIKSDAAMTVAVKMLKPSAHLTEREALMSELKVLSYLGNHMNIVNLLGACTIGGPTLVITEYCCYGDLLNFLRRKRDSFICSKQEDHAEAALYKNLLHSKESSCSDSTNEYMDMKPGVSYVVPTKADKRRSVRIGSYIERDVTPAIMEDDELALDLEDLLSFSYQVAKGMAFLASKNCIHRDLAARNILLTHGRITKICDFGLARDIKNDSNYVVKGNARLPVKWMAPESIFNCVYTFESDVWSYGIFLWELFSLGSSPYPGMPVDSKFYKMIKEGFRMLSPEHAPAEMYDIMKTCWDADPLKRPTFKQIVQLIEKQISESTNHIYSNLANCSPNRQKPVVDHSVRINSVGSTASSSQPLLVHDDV
# [2] = test system: Ba/F3 cells expressing FLT3-ITD-D835Y; test: Ba/F3 FLT3-ITD-D835Y subcutaneous xenograft; type: in vivo, mice; settings: up to 7 days
# Procedure: as §1, §2
# [3] = test system: parental Ba/F3 cells in the presence of IL-3; test: CellTiter-Glo cell viability, off-target; type: cell-based; settings: Mus musculus, BaF3, 48 h; IL-3 present; 2 days of treatment; off-target inhibition; read-out: Cell growth inhibition IC50
# Procedure: as §3, §4
# [4] = Pharmacokinetics in MV4–11 xenografted nude mice (plasma and tumor); type: in vivo; settings: for AUC(0-t) / Cmax / Tmax: nude, mouse; for AUC(0-t): read-out: AUCt, plasma concentration; for Tmax: read-out: Time of maximal plasma concentration
# Procedure: Tumor samples were also collected from each mouse and tumor weight was measured.
# [5] = read-out: Kinase inhibition at the specified gilteritinib concentration (%), 0.1 nM, 2 h
# [6] = read-out: Kinase inhibition at the specified gilteritinib concentration (%), 1 nM, 2 h
# [7] = read-out: Kinase inhibition at the specified gilteritinib concentration (%), 10 nM, 2 h
structure (smiles),measurement,setting,value
CCc1nc(C(N)=O)c(Nc2ccc(N3CCC(N4CCN(C)CC4)CC3)c(OC)c2)nc1NC1CCOCC1 [gilteritinib],Growth inhibition of MV4–11 tumors,MV4–11 tumors; 1 mg/kg/day oral once daily,63%
same,Growth inhibition of MV4–11 tumors,MV4–11 tumors; 3 mg/kg/day oral once daily,80%
same,Tumor regression,MV4–11 tumors; 6 mg/kg/day oral once daily,93%
same,Mice with complete tumor regression,MV4–11 tumors; 6 mg/kg/day,Four of the six mice
same,Tumor regression,MV4–11 tumors; 10 mg/kg/day oral once daily,100%
same,Mice with complete tumor regression,MV4–11 tumors; 10 mg/kg/day,all six mice
same,IC50,MV4–11 cells,0.92 nM
same,inhibition at 0.001 µM,FLT3,> 50%
same,activity at 0.0001 µM,p-ERK; [5],54%
same,activity at 0.001 µM,p-ERK; [6],22%
same,activity at 0.01 µM,p-ERK; [7],1%
same,activity at 0.0001 µM,p-STAT5; [5],114%
same,activity at 0.001 µM,p-STAT5; [6],23%
same,activity at 0.01 µM,p-STAT5; [7],0%
same,activity at 0.0001 µM,p-AKT; [5],65%
same,activity at 0.001 µM,p-AKT; [6],48%
same,activity at 0.01 µM,p-AKT; [7],9%
same,Body weight,[1],not affected
same,IC50,c-KIT,230 nM
same,Antitumor effect (tumor volume),[2]; 10 mg/kg once-daily oral,showed antitumor efficacy
same,Antitumor effect (tumor volume),[2]; 30 mg/kg once-daily oral,induced tumor regression
same,IC50,[3],420 nM
same,AUC(0-t),"[4]; plasma, single oral 1 mg/kg",25.2 ng·h/mL
same,Cmax,"[4]; plasma, single oral 1 mg/kg, read-out: Cmax, plasma concentration",6.56 ng/mL
same,Tmax,"[4]; plasma, single oral 1 mg/kg",2 h
same,AUC(0-t),"[4]; plasma, single oral 6 mg/kg",269 ng·h/mL
same,Cmax,"[4]; plasma, single oral 6 mg/kg, read-out: Cmax, plasma concentration",45.9 ng/mL
same,Tmax,"[4]; plasma, single oral 6 mg/kg",2 h
same,AUC(0-t),"[4]; plasma, single oral 10 mg/kg",493 ng·h/mL
same,Cmax,"[4]; plasma, single oral 10 mg/kg, read-out: Cmax, plasma concentration",83 ng/mL
same,Tmax,"[4]; plasma, single oral 10 mg/kg",2 h
same,Cmax,"[4]; tumor, single oral 1 mg/kg, read-out: Cmax, intratumor concentration",90.6 ng/g
same,Cmax,"[4]; tumor, single oral 6 mg/kg, read-out: Cmax, intratumor concentration",772 ng/g
same,Cmax,"[4]; tumor, single oral 10 mg/kg, read-out: Cmax, intratumor concentration",1120 ng/g
same,Concentration in tumors compared with plasma,"[4]; single oral 1, 6, 10 mg/kg, each time point",higher than that in plasma at each time point
same,"AUCt, intratumor concentration","[4]; tumor, single oral 1 mg/kg",1186 ng·h/g
same,Time of maximal intratumor concentration,"[4]; tumor, single oral 1 mg/kg",4 h
same,"AUCt, intratumor concentration","[4]; tumor, single oral 6 mg/kg",12880 ng·h/g
same,Time of maximal intratumor concentration,"[4]; tumor, single oral 6 mg/kg",8 h
same,"AUCt, intratumor concentration","[4]; tumor, single oral 10 mg/kg",17330 ng·h/g
same,Time of maximal intratumor concentration,"[4]; tumor, single oral 10 mg/kg",8 h
